The text below walks through data of patent publication US4496551A (priority 1983, dated 1985).

The structures appear in SMILES notation.

For one data set, the system named is Puccinia recondita var. tritici. The experiment in a line: wheat leaf rust control on wheat seedlings. Type of data set: in vivo. To be noted: 100 ppm, sprayed day before inoculation. A digest of the protocol:
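Compounds at 100 ppm (6% acetone, 250 ppm polyhydric alcohol ester surfactant in water) sprayed to run-off on wheat seedlings; inoculated next day with P. recondita spores. Kept 24 h at saturated humidity, 20°, then 7 days in growth room before rust pustule rating.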
Consider `COc1ccccc1[Si](C)(C)Cn1ccnc1` [(1H-Imidazol-1-ylmethyl)(2-methoxyphenyl)dimethylsilane], for which the pest or weed control at 100 ppm is 0%.
Molecule `C[Si](C)(Cn1ccnc1)c1ccccc1C(F)(F)F` [(1H-Imidazol-1-ylmethyl)dimethyl(2-trifluoromethylphenyl)silane] gave a pest or weed control at 100 ppm of 0%.
In turn, `Cc1ccc([Si](C)(C)Cn2ccnc2)cc1` [(1H-Imidazol-1-ylmethyl)dimethyl(4-methylphenyl)silane] came in with a pest or weed control at 100 ppm of 0%.
Consider `C[Si](C)(Cn1ccnc1)c1cc(Cl)cc(Cl)c1` [(3,5-Dichlorophenyl)dimethyl(1H-imidazol-1-ylmethyl)silane], for which the pest or weed control at 100 ppm amounted to 0%.
For the molecule `C[Si](C)(Cn1ccnc1)c1ccc(OC(F)(F)F)cc1` [Dimethyl(1H-imidazol-1-ylmethyl)(4-trifluoromethoxyphenyl)silane], the pest or weed control at 100 ppm came to 100%.
Take `C[Si](Cn1ccnc1)(c1ccc(Cl)cc1)c1ccc(Cl)cc1` [bis(4-Chlorophenyl)(1H-imidazol-1-ylmethyl)methylsilane]: the pest or weed control at 100 ppm was determined as 0%.

In another data set the test system is Erysiphe cichoracearum. The experiment in a line: cucumber powdery mildew control on cucumber seedlings. Type of data set: in vivo. To be noted: Golovinomyces cichoracearum, 168 h, 7 days. A digest of the protocol:
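Compounds at 100 ppm in water with 6% acetone and 250 ppm TREM 014 surfactant, sprayed to run-off on cucumber seedlings. Inoculation with Erysiphe cichoracearum spores the following day; disease rated after 7 days in a growth room against untreated plants.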
`COc1ccccc1[Si](C)(C)Cn1ccnc1` [(1H-Imidazol-1-ylmethyl)(2-methoxyphenyl)dimethylsilane] returned a pest or weed control at 100 ppm of 100%.
Same read-out and setting: next, `C[Si](C)(Cn1ccnc1)c1ccccc1C(F)(F)F` [(1H-Imidazol-1-ylmethyl)dimethyl(2-trifluoromethylphenyl)silane]: 100%.
Turning to `Cc1ccc([Si](C)(C)Cn2ccnc2)cc1` [(1H-Imidazol-1-ylmethyl)dimethyl(4-methylphenyl)silane], the pest or weed control at 100 ppm is 100%.
With `C[Si](C)(Cn1ccnc1)c1cc(Cl)cc(Cl)c1` [(3,5-Dichlorophenyl)dimethyl(1H-imidazol-1-ylmethyl)silane], the pest or weed control at 100 ppm was 100%.
Turning to `C[Si](C)(Cn1ccnc1)c1ccc(OC(F)(F)F)cc1` [Dimethyl(1H-imidazol-1-ylmethyl)(4-trifluoromethoxyphenyl)silane], the pest or weed control at 100 ppm amounted to 100%.
As to `C[Si](Cn1ccnc1)(c1ccc(Cl)cc1)c1ccc(Cl)cc1` [bis(4-Chlorophenyl)(1H-imidazol-1-ylmethyl)methylsilane], the pest or weed control at 100 ppm was 100%.

For the next data set, the system named is Erysiphe graminis. The experiment in a line: barley powdery mildew control on barley seedlings. Type of data set: in vivo. The following applies: Blumeria graminis, 168 h; 100 ppm, 7 days. How it is done:
Several compounds of the previous examples were again dissolved in acetone in an amount equal to 6% of the final volume and then suspended at a concentration of 100 ppm in purified water containing 250 ppm of the surfactant TREM 014 (polyhydric alcohol esters). This suspension was sprayed to the point of run-off on barley seedlings. The following day, the plants were inoculated with a spore suspension of the fungus Erysiphe graminis, causal agent of barley powdery mildew, and incubated in a growth room for 7 days. Disease ratings were then made. Treated plants had little or no powdery mildew in contrast to untreated plants which were covered with powdery mildew.
Consider `C[Si](Cn1ccnc1)(c1ccc(Cl)cc1)c1ccc(Cl)cc1` [bis(4-Chlorophenyl)(1H-imidazol-1-ylmethyl)methylsilane], for which the pest or weed control at 100 ppm came out at 100%.

In another data set the test system is Venturia inaequalis. The experiment in a line: apple scab control on apple seedlings. To be noted: Venturia inaequalis; 100 ppm. Type of data set: in vivo. A digest of the protocol:
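Apple seedlings sprayed to run-off with 100 ppm compound suspension (6% acetone, 250 ppm TREM 014 surfactant). Inoculated next day with Venturia inaequalis spores; 24 hours at 20° in saturated humidity, then 10-12 days in growth room. Scab lesions compared with untreated plants.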
The molecule `COc1ccccc1[Si](C)(C)Cn1ccnc1` [(1H-Imidazol-1-ylmethyl)(2-methoxyphenyl)dimethylsilane] returned a pest or weed control at 100 ppm of 60%.
As to `C[Si](C)(Cn1ccnc1)c1ccccc1C(F)(F)F` [(1H-Imidazol-1-ylmethyl)dimethyl(2-trifluoromethylphenyl)silane], the pest or weed control at 100 ppm stood at 0%.
Turning to `Cc1ccc([Si](C)(C)Cn2ccnc2)cc1` [(1H-Imidazol-1-ylmethyl)dimethyl(4-methylphenyl)silane], the pest or weed control at 100 ppm came to 0%.
`C[Si](C)(Cn1ccnc1)c1cc(Cl)cc(Cl)c1` [(3,5-Dichlorophenyl)dimethyl(1H-imidazol-1-ylmethyl)silane] yielded a pest or weed control at 100 ppm of 50%.
Same read-out and setting: then `C[Si](C)(Cn1ccnc1)c1ccc(OC(F)(F)F)cc1` [Dimethyl(1H-imidazol-1-ylmethyl)(4-trifluoromethoxyphenyl)silane], with 50%.
As to `C[Si](Cn1ccnc1)(c1ccc(Cl)cc1)c1ccc(Cl)cc1` [bis(4-Chlorophenyl)(1H-imidazol-1-ylmethyl)methylsilane], the pest or weed control at 100 ppm is 0%.

Another data set deals with Helminthosporium maydis. The experiment in a line: southern corn leaf blight control on corn seedlings. Type of data set: in vivo. To be noted: Bipolaris maydis, 168 h. In a few lines: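 Corn seedlings were sprayed to run-off with 100 ppm compound (6% acetone, 250 ppm TREM 014), inoculated next day with H. maydis spores, then kept 24 h at 20° in saturated humidity and 7 more days in a growth room. Lesions were rated as disease score.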
In turn, `COc1ccccc1[Si](C)(C)Cn1ccnc1` [(1H-Imidazol-1-ylmethyl)(2-methoxyphenyl)dimethylsilane] had a pest or weed control at 100 ppm of 0%.
For the molecule `C[Si](C)(Cn1ccnc1)c1ccccc1C(F)(F)F` [(1H-Imidazol-1-ylmethyl)dimethyl(2-trifluoromethylphenyl)silane], the pest or weed control at 100 ppm was 90%.
In turn, `Cc1ccc([Si](C)(C)Cn2ccnc2)cc1` [(1H-Imidazol-1-ylmethyl)dimethyl(4-methylphenyl)silane] displayed a pest or weed control at 100 ppm of 0%.
Turning to `C[Si](C)(Cn1ccnc1)c1cc(Cl)cc(Cl)c1` [(3,5-Dichlorophenyl)dimethyl(1H-imidazol-1-ylmethyl)silane], the pest or weed control at 100 ppm stood at 0%.
`C[Si](C)(Cn1ccnc1)c1ccc(OC(F)(F)F)cc1` [Dimethyl(1H-imidazol-1-ylmethyl)(4-trifluoromethoxyphenyl)silane] yielded a pest or weed control at 100 ppm of 0%.
Molecule `C[Si](Cn1ccnc1)(c1ccc(Cl)cc1)c1ccc(Cl)cc1` [bis(4-Chlorophenyl)(1H-imidazol-1-ylmethyl)methylsilane] had a pest or weed control at 100 ppm of 60%.

Another data set deals with Cercospora arachidicola. The experiment in a line: peanut early leafspot control on peanut seedlings. Type of data set: in vivo. To be noted: Mycosphaerella arachidis, 336 h. In a few lines: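 Compounds dissolved in acetone (6% of final volume) and suspended at 100 ppm in water with 250 ppm TREM 014, sprayed to run-off on seedlings. Cercospora arachidicola inoculated next day; 24 h saturated humidity at 27°, then 14 days growth room before disease and leafspot rating.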
With `COc1ccccc1[Si](C)(C)Cn1ccnc1` [(1H-Imidazol-1-ylmethyl)(2-methoxyphenyl)dimethylsilane], the pest or weed control at 100 ppm was 0%.
Molecule `C[Si](C)(Cn1ccnc1)c1ccccc1C(F)(F)F` [(1H-Imidazol-1-ylmethyl)dimethyl(2-trifluoromethylphenyl)silane] displayed a pest or weed control at 100 ppm of 0%.
`Cc1ccc([Si](C)(C)Cn2ccnc2)cc1` [(1H-Imidazol-1-ylmethyl)dimethyl(4-methylphenyl)silane] displayed a pest or weed control at 100 ppm of 0%.
For `C[Si](C)(Cn1ccnc1)c1cc(Cl)cc(Cl)c1` [(3,5-Dichlorophenyl)dimethyl(1H-imidazol-1-ylmethyl)silane], the pest or weed control at 100 ppm stood at 0%.
As to `C[Si](C)(Cn1ccnc1)c1ccc(OC(F)(F)F)cc1` [Dimethyl(1H-imidazol-1-ylmethyl)(4-trifluoromethoxyphenyl)silane], the pest or weed control at 100 ppm was 90%.
On the same count and under the same terms, then `C[Si](Cn1ccnc1)(c1ccc(Cl)cc1)c1ccc(Cl)cc1` [bis(4-Chlorophenyl)(1H-imidazol-1-ylmethyl)methylsilane], with 0%.

A further data set deals with Rhizoctonia solani. The experiment in a line: rice sheath blight control on rice seedlings. The following applies: Rhizoctonia solani, 168 h, 7 days. Type of data set: in vivo. In a few lines: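 Rice seedlings sprayed to run-off with 100 ppm compound suspension (6% acetone, 250 ppm surfactant), then inoculated next day with bran/mycelium of Rhizoctonia solani. After 7 days in a growth room, sheath blight disease was rated.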
Molecule `COc1ccccc1[Si](C)(C)Cn1ccnc1` [(1H-Imidazol-1-ylmethyl)(2-methoxyphenyl)dimethylsilane] registered a pest or weed control at 100 ppm of 90%.
On the same count and under the same terms, next, `C[Si](C)(Cn1ccnc1)c1ccccc1C(F)(F)F` [(1H-Imidazol-1-ylmethyl)dimethyl(2-trifluoromethylphenyl)silane]: 80%.
The molecule `Cc1ccc([Si](C)(C)Cn2ccnc2)cc1` [(1H-Imidazol-1-ylmethyl)dimethyl(4-methylphenyl)silane] had a pest or weed control at 100 ppm of 0%.
Take `C[Si](C)(Cn1ccnc1)c1cc(Cl)cc(Cl)c1` [(3,5-Dichlorophenyl)dimethyl(1H-imidazol-1-ylmethyl)silane]: the pest or weed control at 100 ppm stood at 90%.
For `C[Si](C)(Cn1ccnc1)c1ccc(OC(F)(F)F)cc1` [Dimethyl(1H-imidazol-1-ylmethyl)(4-trifluoromethoxyphenyl)silane], the pest or weed control at 100 ppm was found to be 0%.
In turn, `C[Si](Cn1ccnc1)(c1ccc(Cl)cc1)c1ccc(Cl)cc1` [bis(4-Chlorophenyl)(1H-imidazol-1-ylmethyl)methylsilane] had a pest or weed control at 100 ppm of 0%.

The next data set deals with Pyricularia oryzae. The experiment in a line: whole plant or invertebrate. Type of data set: in vivo. To be noted: 168 h, read-out: % Control of Rice Blast.
As for `COc1ccccc1[Si](C)(C)Cn1ccnc1` [(1H-Imidazol-1-ylmethyl)(2-methoxyphenyl)dimethylsilane], the pest or weed control at 100 ppm was determined as 0%.
On to `C[Si](C)(Cn1ccnc1)c1ccccc1C(F)(F)F` [(1H-Imidazol-1-ylmethyl)dimethyl(2-trifluoromethylphenyl)silane], for which the pest or weed control at 100 ppm turned out to be 0%.
Regarding `Cc1ccc([Si](C)(C)Cn2ccnc2)cc1` [(1H-Imidazol-1-ylmethyl)dimethyl(4-methylphenyl)silane], the pest or weed control at 100 ppm is 0%.
Consider `C[Si](C)(Cn1ccnc1)c1cc(Cl)cc(Cl)c1` [(3,5-Dichlorophenyl)dimethyl(1H-imidazol-1-ylmethyl)silane], for which the pest or weed control at 100 ppm is 0%.
Take `C[Si](C)(Cn1ccnc1)c1ccc(OC(F)(F)F)cc1` [Dimethyl(1H-imidazol-1-ylmethyl)(4-trifluoromethoxyphenyl)silane]: the pest or weed control at 100 ppm was determined as 90%.
In the case of `C[Si](Cn1ccnc1)(c1ccc(Cl)cc1)c1ccc(Cl)cc1` [bis(4-Chlorophenyl)(1H-imidazol-1-ylmethyl)methylsilane], the pest or weed control at 100 ppm was 0%.

In a further data set the test system is Phytophthora infestans. The experiment in a line: whole plant or invertebrate. Type of data set: in vivo. To be noted: Phytophthora infestans, in Solanum lycopersicum, 168 h, read-out: % Control of Tomato Late Blight.
In the case of `COc1ccccc1[Si](C)(C)Cn1ccnc1` [(1H-Imidazol-1-ylmethyl)(2-methoxyphenyl)dimethylsilane], the pest or weed control at 100 ppm was determined as 0%.
For `C[Si](C)(Cn1ccnc1)c1ccccc1C(F)(F)F` [(1H-Imidazol-1-ylmethyl)dimethyl(2-trifluoromethylphenyl)silane], the pest or weed control at 100 ppm was determined as 0%.
Same read-out and setting: then `Cc1ccc([Si](C)(C)Cn2ccnc2)cc1` [(1H-Imidazol-1-ylmethyl)dimethyl(4-methylphenyl)silane], with 0%; and `C[Si](C)(Cn1ccnc1)c1cc(Cl)cc(Cl)c1` [(3,5-Dichlorophenyl)dimethyl(1H-imidazol-1-ylmethyl)silane], with 0%; and `C[Si](C)(Cn1ccnc1)c1ccc(OC(F)(F)F)cc1` [Dimethyl(1H-imidazol-1-ylmethyl)(4-trifluoromethoxyphenyl)silane], with 0%.
As for `C[Si](Cn1ccnc1)(c1ccc(Cl)cc1)c1ccc(Cl)cc1` [bis(4-Chlorophenyl)(1H-imidazol-1-ylmethyl)methylsilane], the pest or weed control at 100 ppm was 0%.

A further data set has as its system Pythium aphanadermatum. The experiment in a line: Pythium control on coated cotton seeds. Type of data set: in vivo. To be noted: 168 h, 2 gm/kg seed, 1 week. From the text: Several compounds of the previous examples were incorporated into a proprietary formulation and used to coat cotton seeds at a rate of 2 gm/kg seed. After being thoroughly coated, the seeds were allowed to air dry at room temperature. The cotton seeds were then planted into soil amended with the fungus Pythium aphanadermatum, sand, and corn meal at a rate sufficient to kill most untreated seeds. The seeds were held at room temperature for 1 week, after which time disease ratings were made.
Turning to `Cc1ccc([Si](C)(C)Cn2ccnc2)cc1` [(1H-Imidazol-1-ylmethyl)dimethyl(4-methylphenyl)silane], the pest or weed control at 2000 mg/kg is 0%.

In a further data set the test system is Pythium aphanadermatum. The experiment in a line: Pythium control on coated corn seeds. Type of data set: in vivo. To be noted: 504 h, 2 gm/kg seed, 49° F. 2 weeks then 70° F. 1 week. As to the method: Several compounds of the previous examples were incorporated into a proprietary formulation and used to coat corn seeds at a rate of 2 gm/kg seed. After being thoroughly coated, the seeds were allowed to air dry at room temperature. The seeds were then planted into soil amended with a mixture of the fungus Pythium aphanadermatum, sand, and corn meal at a rate sufficient to kill most untreated seeds. The seeds were held at 49° F. for 2 weeks and then at 70° F. for 1 additional week. After this time disease ratings were made.
`Cc1ccc([Si](C)(C)Cn2ccnc2)cc1` [(1H-Imidazol-1-ylmethyl)dimethyl(4-methylphenyl)silane]: the pest or weed control at 2000 mg/kg was 30%.

For the next data set, the system named is cucumber seedlings. The experiment in a line: phytotoxicity on cucumber seedlings. Type of data set: in vivo. Also noted: key: G: growth reduction; H: hormonal effects. The following applies: 100 ppm.
Take `COc1ccccc1[Si](C)(C)Cn1ccnc1` [(1H-Imidazol-1-ylmethyl)(2-methoxyphenyl)dimethylsilane]: the “Phytotoxicity (growth reduction or hormonal effects)” value is on record as “G”.
As for `C[Si](C)(Cn1ccnc1)c1ccccc1C(F)(F)F` [(1H-Imidazol-1-ylmethyl)dimethyl(2-trifluoromethylphenyl)silane], the “Phytotoxicity (growth reduction or hormonal effects)” value is listed as “G”.
Regarding `Cc1ccc([Si](C)(C)Cn2ccnc2)cc1` [(1H-Imidazol-1-ylmethyl)dimethyl(4-methylphenyl)silane], the “Phytotoxicity (growth reduction or hormonal effects)” value was “G”.
As for `C[Si](C)(Cn1ccnc1)c1cc(Cl)cc(Cl)c1` [(3,5-Dichlorophenyl)dimethyl(1H-imidazol-1-ylmethyl)silane], the “Phytotoxicity (growth reduction or hormonal effects)” value is given as “G”.
On to `C[Si](C)(Cn1ccnc1)c1ccc(OC(F)(F)F)cc1` [Dimethyl(1H-imidazol-1-ylmethyl)(4-trifluoromethoxyphenyl)silane], for which the “Phytotoxicity (growth reduction or hormonal effects)” value was “G”.
